Patent US10906878B2, “Kinase inhibitors for the treatment of disease” (Dana-Farber Cancer Institute, Inc., priority 2013, dated 2021)
Several values for one entry are separate records, joined by “and”; a condition that tells them apart may be missing. Equal values may be shown once. Read-outs that look alike come from different tables or passages of the source.

Assays:
TEC = TEC (Homo sapiens (Human), UniProt P42680); assay: Kinase inhibition TEC; assay type: biochemical
EGFR L858R Ba/F3 cells = EGFR L858R Ba/F3 cells (Homo sapiens (Human), UniProt P00533, L858R); assay: Ba/F3 cell growth inhibition (MTS assay), EGFR L858R; assay type: cell-based; conditions: for EGFR activity (% Control, 1.0 μM drug) Assay 1 L858R / IC50: Assay 1; for IC50: L858R, read-out: EGFR Ba/F3 cells IC 50 (nM) Assay 1 L858R; for EGFR activity (% Control, 100 nM drug) L858R: Table G
Description: (§1) The specific cDNAs encoding the oncogenic alterations (EGFR: Del 19, L858R, L718Q, L844V, Del/T790M, L858R/T790M, Del 19/L718Q, Del 19/L844V, Del 19/T790M/L718Q and L858R/T790M/L718Q; FGFR: TEL-FGFR1, TEL-FGFR2, TEL-FGFR1 V561M, TEL-FGFR2 V561M; ALK: EML4-ALK; ROS1: CD74-ROS1) were cloned into the pDNA-Dual (BD Biosciences) vector using standard molecular biology techniques. Mutations were introduced using site-directed mutagenesis (Agilent) with mutant specific primers according to the manufacturer's instructions. All constructs were confirmed by DNA sequencing. The constructs were introduced into Ba/F3 cells using retroviral infection. Polyclonal cell lines were established by puromycin selection and subsequently cultured in the absence of interleukin-3 (IL-3). Uninfected Ba/F3 cells or cell lines expressing green fluorescent protein (GFP) were used as controls.
(§2) Growth and inhibition of growth was assessed by MTS assay. This assay, a colorimetric method for determining the number of viable cells, is based on the bioreduction of 3-(4,5-dimethylthiazol-2-yl)-5-(3-carboxymethoxyphenyl)-2-(4-sulfophenyl)-2H-tetrazolium (MTS) by cells to a formazan product that is soluble in cell culture medium, can be detected spectrophotometrically and was performed according to the manufacturer's recommended conditions. Ba/F3 cells were exposed to treatment for 72 hours and the number of cells used per experiment determined empirically to assure linear growth kinetics over that time period. All experimental points were set up in six to twelve wells and all experiments were repeated at least three times. […] The curves were fitted using a non-linear regression model with a sigmoidal dose response.

BLK = BLK (Homo sapiens (Human), UniProt P51451); assay: Kinase inhibition BLK; assay type: biochemical
BLK, sequence (P51451 whole entry): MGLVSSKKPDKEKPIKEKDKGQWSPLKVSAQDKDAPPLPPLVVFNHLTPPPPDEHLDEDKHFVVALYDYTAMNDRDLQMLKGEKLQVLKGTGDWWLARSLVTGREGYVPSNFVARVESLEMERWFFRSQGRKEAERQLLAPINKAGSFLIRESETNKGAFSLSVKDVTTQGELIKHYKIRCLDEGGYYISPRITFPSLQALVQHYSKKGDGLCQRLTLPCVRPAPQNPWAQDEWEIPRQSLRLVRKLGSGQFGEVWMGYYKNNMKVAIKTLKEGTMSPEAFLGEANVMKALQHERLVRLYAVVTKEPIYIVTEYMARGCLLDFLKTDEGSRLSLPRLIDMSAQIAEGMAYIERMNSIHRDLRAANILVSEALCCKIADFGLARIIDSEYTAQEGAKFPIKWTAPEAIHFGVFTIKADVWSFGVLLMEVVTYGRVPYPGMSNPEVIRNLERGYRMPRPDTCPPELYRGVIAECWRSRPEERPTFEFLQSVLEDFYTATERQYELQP

TXK = TXK (Homo sapiens (Human), UniProt P42681); assay: Kinase inhibition TXK; assay type: biochemical
TXK, sequence (P42681 whole entry): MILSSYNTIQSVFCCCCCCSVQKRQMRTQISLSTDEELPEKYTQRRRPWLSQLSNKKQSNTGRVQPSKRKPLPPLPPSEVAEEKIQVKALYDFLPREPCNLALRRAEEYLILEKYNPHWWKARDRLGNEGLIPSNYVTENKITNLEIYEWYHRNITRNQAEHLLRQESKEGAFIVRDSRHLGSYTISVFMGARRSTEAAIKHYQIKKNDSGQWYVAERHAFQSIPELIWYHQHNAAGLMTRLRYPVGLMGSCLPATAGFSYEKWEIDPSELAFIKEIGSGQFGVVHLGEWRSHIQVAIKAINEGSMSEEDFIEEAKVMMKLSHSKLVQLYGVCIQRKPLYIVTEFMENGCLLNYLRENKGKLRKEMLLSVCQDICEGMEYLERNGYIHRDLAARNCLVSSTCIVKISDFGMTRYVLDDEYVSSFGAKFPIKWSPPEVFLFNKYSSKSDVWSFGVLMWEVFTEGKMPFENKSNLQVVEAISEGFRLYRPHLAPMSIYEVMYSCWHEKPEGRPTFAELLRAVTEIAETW

EGFR Del Ba/F3 cells = EGFR Del Ba/F3 cells (Homo sapiens, UniProt P00533, cells depend on it, form not given); assay: Ba/F3 cell growth inhibition (MTS assay), EGFR Del; assay type: cell-based; conditions: for EGFR activity (% Control, 1.0 μM drug) Assay 1 Del / IC50: Assay 1; for IC50: Del, read-out: EGFR Ba/F3 cells IC 50 (nM) Assay 1 Del; for EGFR activity (% Control, 100 nM drug) Del: Table G
Description: as §1, §2

ITK = ITK (Homo sapiens (Human), UniProt Q08881); assay: Kinase inhibition ITK; assay type: biochemical
ITK, sequence (Q08881 whole entry): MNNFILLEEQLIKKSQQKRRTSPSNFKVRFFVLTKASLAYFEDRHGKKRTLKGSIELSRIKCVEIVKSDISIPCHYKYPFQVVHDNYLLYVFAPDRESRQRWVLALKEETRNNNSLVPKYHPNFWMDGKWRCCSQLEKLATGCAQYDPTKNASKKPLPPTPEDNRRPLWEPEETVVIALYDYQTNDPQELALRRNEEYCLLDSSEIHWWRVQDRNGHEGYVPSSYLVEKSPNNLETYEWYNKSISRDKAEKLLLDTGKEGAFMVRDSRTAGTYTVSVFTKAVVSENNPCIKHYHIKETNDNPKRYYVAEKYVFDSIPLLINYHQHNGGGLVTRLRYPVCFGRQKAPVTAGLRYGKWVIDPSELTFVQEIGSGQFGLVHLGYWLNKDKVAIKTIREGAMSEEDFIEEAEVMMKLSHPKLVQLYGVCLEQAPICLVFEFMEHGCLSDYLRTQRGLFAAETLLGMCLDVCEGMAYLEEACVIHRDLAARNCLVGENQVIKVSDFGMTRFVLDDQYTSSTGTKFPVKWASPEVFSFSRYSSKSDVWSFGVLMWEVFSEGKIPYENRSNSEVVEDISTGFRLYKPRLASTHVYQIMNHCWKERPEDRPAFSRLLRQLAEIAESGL

KIF5B/Ret_V804M = assay: Ba/F3 cell growth inhibition (MTS assay), KIF5B/Ret_V804M; assay type: cell-based
Procedure: as §2

[1] = molecular target: EGFR Del/T790M Ba/F3 cells (Homo sapiens, UniProt P00533, T790M, cells depend on it, form not given); assay: Ba/F3 cell growth inhibition (MTS assay), EGFR Del/T790M; assay type: cell-based; conditions: for EGFR activity (% Control, 1.0 μM drug) Assay 1 Del/T790M / IC50: Assay 1; for IC50: Del/T790M, read-out: EGFR Ba/F3 cells IC 50 (nM) Assay 1 Del/T790M; for EGFR activity (% Control, 100 nM drug) Del/T790M: Table G
Description: as §1, §2

[2] = molecular target: EGFR Del/T790M/L718Q Ba/F3 cells (Homo sapiens, UniProt P00533, L718Q/T790M, cells depend on it, form not given); assay type: cell-based
Description: as §1, §2

[3] = molecular target: EGFR Wild type vIII Ba/F3 cells (Homo sapiens (Human), UniProt P00533, DELINS30-297G); assay: Ba/F3 cell growth inhibition (MTS assay), EGFR Wild type vIII; assay type: cell-based
[4] = molecular target: EGFR L858R/T790M Ba/F3 cells (Homo sapiens (Human), UniProt P00533, L858R/T790M); assay: Ba/F3 cell growth inhibition (MTS assay), EGFR L858R/T790M; assay type: cell-based; conditions: for IC50: Assay 1, L858R/T790M, read-out: EGFR Ba/F3 cells IC 50 (nM) Assay 1 L858R/T790M; for EGFR activity (% Control, 100 nM drug) L858R/T790M: Table G
Description: as §1, §2

[5] = Microsome Stability Mouse; assay type: in vitro ADME; conditions: mouse microsomes
[6] = molecular target: EGFR L858R/T790M/L718Q Ba/F3 cells (Homo sapiens (Human), UniProt P00533, L718Q/L858R/T790M); assay: Ba/F3 cell growth inhibition (MTS assay), EGFR L858R/T790M/L718Q; assay type: cell-based
Description: as §1, §2

BTK = BTK (Homo sapiens (Human), UniProt Q06187); assay: BTK kinase assay (LanthaScreen Kinase assay); assay type: biochemical
BTK, sequence (Q06187 whole entry): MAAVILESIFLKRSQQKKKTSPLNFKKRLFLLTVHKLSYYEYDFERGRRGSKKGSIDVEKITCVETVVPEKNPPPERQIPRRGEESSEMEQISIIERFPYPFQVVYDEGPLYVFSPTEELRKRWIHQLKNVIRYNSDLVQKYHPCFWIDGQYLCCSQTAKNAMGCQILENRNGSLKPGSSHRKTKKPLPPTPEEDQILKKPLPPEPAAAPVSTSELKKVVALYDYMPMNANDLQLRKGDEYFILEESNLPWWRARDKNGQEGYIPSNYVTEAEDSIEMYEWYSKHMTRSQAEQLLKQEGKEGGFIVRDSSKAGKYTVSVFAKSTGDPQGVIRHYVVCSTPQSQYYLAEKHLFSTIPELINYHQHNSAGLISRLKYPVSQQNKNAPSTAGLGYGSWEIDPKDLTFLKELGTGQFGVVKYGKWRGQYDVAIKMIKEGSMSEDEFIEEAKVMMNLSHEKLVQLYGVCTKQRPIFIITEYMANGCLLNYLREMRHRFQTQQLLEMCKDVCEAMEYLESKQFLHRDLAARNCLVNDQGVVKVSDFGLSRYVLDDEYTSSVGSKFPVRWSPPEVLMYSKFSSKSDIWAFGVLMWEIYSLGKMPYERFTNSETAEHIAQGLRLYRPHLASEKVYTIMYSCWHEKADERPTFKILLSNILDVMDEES
Procedure: BTK kinase assay was conducted using LanthaScreen® Kinase assay.
1. Optimization of kinase concentration required to determine ATP Km,app. The assay was first performed at a high concentration of ATP (1 mM) against a dilution series of kinase in order to determine the amount of kinase required to elicit an approximately 80% change between the minimum and maximum TR-FRET emission ratios (the EC80 value).
2. Determination of ATP Km,app. Using the concentration of enzyme determined in step 1, the assay was then performed against a dilution series of ATP in order to determine the amount of ATP required to elicit a 50% change between the minimum and maximum TR-FRET emission ratios (the EC50 value). This concentration of ATP was referred to as the “apparent” Km value for ATP, or the ATP Km,app.
3. Optimization of kinase concentration required for assay at ATP Km,app. Using the ATP Km,app concentration of ATP determined in step 2, the kinase titration was repeated in order to determine the concentration of kinase required to elicit an approximately 80% change between the minimum and maximum TR-FRET emission ratios at the ATP Km,app concentration of ATP (the EC80 value). This was the concentration of kinase that will be used in an assay to determine an IC50 value for a compound of the invention.
Using the ATP and kinase concentrations determined above, the reaction was then performed in the presence of a dilution series of various compounds of the invention, and the amount of compounds required to elicit a 50% change in TR-FRET ratio (the IC50) was determined. The experiments can be performed over two days, with steps one and two being performed on the first day, and step three and the inhibitor IC50 determination(s) being performed on the second day.

[7] = molecular target: EGFR L718Q/L858R Ba/F3 cells (Homo sapiens (Human), UniProt P00533, L718Q/L858R); assay: Ba/F3 cell growth inhibition (MTS assay), EGFR L858R/L718Q; assay type: cell-based; conditions: L718Q/L858R
[8] = Assay 1, read-out: EGFR Ba/F3 cells IC 50 (nM) Assay 1 Wild type vIII
[9] = Assay 1; T/L/L718Q; read-out: EGFR Ba/F3 cells IC 50 (nM) Assay 1 T/L/L718Q

TEC, sequence (P42680 whole entry): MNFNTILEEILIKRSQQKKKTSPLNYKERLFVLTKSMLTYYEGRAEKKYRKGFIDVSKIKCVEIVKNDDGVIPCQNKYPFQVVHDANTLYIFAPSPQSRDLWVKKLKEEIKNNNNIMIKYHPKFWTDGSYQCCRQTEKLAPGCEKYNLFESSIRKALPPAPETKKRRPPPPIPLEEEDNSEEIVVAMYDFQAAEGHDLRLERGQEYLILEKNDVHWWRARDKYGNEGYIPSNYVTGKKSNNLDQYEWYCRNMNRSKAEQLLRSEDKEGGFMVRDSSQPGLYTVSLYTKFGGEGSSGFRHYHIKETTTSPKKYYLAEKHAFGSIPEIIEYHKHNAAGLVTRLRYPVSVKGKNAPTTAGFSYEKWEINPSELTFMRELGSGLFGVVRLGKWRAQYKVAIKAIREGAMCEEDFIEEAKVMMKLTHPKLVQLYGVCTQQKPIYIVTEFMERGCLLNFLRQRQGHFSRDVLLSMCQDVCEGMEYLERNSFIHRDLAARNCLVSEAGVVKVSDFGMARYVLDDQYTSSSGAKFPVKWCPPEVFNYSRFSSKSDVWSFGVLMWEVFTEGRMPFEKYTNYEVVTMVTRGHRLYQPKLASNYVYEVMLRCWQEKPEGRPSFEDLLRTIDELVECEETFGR

Row | SMILES | Kinase inhibition (% control, 1000 nM compound) TEC (TEC) [% control] | EGFR activity (% Control, 1.0 μM drug) Assay 1 L858R (EGFR L858R Ba/F3 cells) [% Control] | EGFR activity (% Control, 1.0 μM drug) Assay 2 L858R (EGFR L858R Ba/F3 cells) [% Control] | Kinase inhibition (% control, 1000 nM compound) BLK (BLK) [% control] | Kinase inhibition (% control, 1000 nM compound) TXK (TXK) [% control] | EGFR activity (% Control, 1.0 μM drug) Assay 1 Del (EGFR Del Ba/F3 cells) [% Control] | EGFR activity (% Control, 1.0 μM drug) Assay 2 Del (EGFR Del Ba/F3 cells) [% Control] | Kinase inhibition (% control, 1000 nM compound) ITK (ITK) [% control] | EGFR activity (% Control, 1.0 μM drug) Assay 1 Del/T790M [1] [% Control] | EGFR activity (% Control, 1.0 μM drug) Assay 2 Del/T790M [1] [% Control] | EGFR activity (% Control, 1.0 μM drug) Assay 1 Del/T790M/L718Q ([2]; Assay 1) [% Control] | EGFR activity (% Control, 1.0 μM drug) Assay 2 Del/T790M/L718Q [2] [% Control] | IC50 (EGFR L858R Ba/F3 cells) [nM] | IC50 (EGFR Del Ba/F3 cells) [nM] | IC50 [4] [nM] | Microsome Stability Mouse min [5] [min] | IC50 [1] [nM] | IC50 (BTK) [nM] | further results
1 | C=CC(=O)Nc1cccc(N(C(=O)NCc2ccccc2)c2cc(Nc3ccc(N4CCN(C)CC4)cc3OC)ncn2)c1 [Compound 3A, N-(3-(3-benzyl-1-(6-((2-methoxy-4-(4-methylpiperazin-1-yl)phenyl)amino)pyrimidin-4-yl)ureido)phenyl)acrylamide] | 55 | 2 | 4 | 19 | 7.4 | 2 | 1 | 100 | 1 | 2 | 53 | 86 |  |  |  |  |  |  | EGFR activity (% Control, 1.0 μM drug) Assay 1 KIF5B/Ret_V804M (KIF5B/Ret_V804M): 102 % Control
2 | C=CC(=O)Nc1cccc(N(C(=O)OCc2ccccc2)c2ccnc(Nc3ccc(N4CCN(C)CC4)cc3OC)n2)c1 [Compound 4A, Benzyl (3-acrylamidophenyl)(2-((2-methoxy-4-(4-methylpiperazin-1-yl)phenyl)amino)pyrimidin-4-yl)carbamate] | 83 |  |  | 20 | 27 |  |  | 100 |  |  |  |  | 0.5 | 14.2 | 7.6 | 29 | 17.3 |  | IC50 [3, 8]: 2.92 nM; IC50 [6, 9]: 293 nM
3 | CN(C)C/C=C/C(=O)Nc1cccc(N(C(=O)OCc2ccccc2)c2ccnc3[nH]ccc23)c1 [Compound 104A] |  |  |  |  |  |  |  |  |  |  |  |  |  |  |  |  |  | > 10000 | 
4 | C=CC(=O)Nc1cccc(N(C(=O)NCc2ccccc2)c2cc(Nc3ccc(N4CCN(C)CC4)cc3)ncn2)c1 [Compound 29A] |  |  |  |  |  |  |  |  |  |  |  |  |  |  |  |  |  | 19.4 | EGFR activity (% Control, 100 nM drug) L858R (EGFR L858R Ba/F3 cells): 0 % Control; EGFR activity (% Control, 100 nM drug) Del (EGFR Del Ba/F3 cells): 2 % Control; EGFR activity (% Control, 100 nM drug) L858R/T790M [4]: 13 % Control; EGFR activity (% Control, 100 nM drug) Del/T790M [1]: 6 % Control
5 | C=CC(=O)Nc1cccc(N(C(=O)OCc2ccccc2)c2ccnc3[nH]ccc23)c1 [Compound 103A] |  |  |  |  |  |  |  |  |  |  |  |  |  |  |  |  |  | 2240 | 
6 | C=CC(=O)Nc1cccc(N(C(=O)Nc2ccccc2)c2cc(Nc3ccc(N4CCN(C)CC4)cc3)ncn2)c1 [Compound 25A] |  |  |  |  |  |  |  |  |  |  |  |  |  |  |  |  |  | 31.2 | EGFR activity (% Control, 100 nM drug) L858R (EGFR L858R Ba/F3 cells): 1 % Control; EGFR activity (% Control, 100 nM drug) Del (EGFR Del Ba/F3 cells): 14 % Control; EGFR activity (% Control, 100 nM drug) L858R/T790M [4]: 24 % Control; EGFR activity (% Control, 100 nM drug) Del/T790M [1]: 53 % Control
7 | C=CC(=O)Nc1cccc(N(C(=O)Oc2ccccc2)c2ccnc(Nc3ccc(N4CCN(C)CC4)cc3OC)n2)c1 [Compound 10A] |  | 4 | 3 |  |  | 4 | 1 |  | 2 | 2 | 76 | 84 | 1.52 | 4.64 | 14.8 | 18.5 | 22.9 |  | IC50 ([7]; read-out: EGFR Ba/F3 cells IC 50 (nM) Assay 1 L718Q/L858R, Assay 1): 146 nM; IC50 ([7]; read-out: EGFR Ba/F3 cells IC 50 (nM) Assay 2 L718Q/L858R, Assay 2): 204 nM; IC50 ([3]; read-out: EGFR Ba/F3 cells IC 50 (nM) Assay 1 Wild type vIII): 28.1 nM; KIF5B/Ret_V804M Ba/F3 cell growth (% control, 1.0 μM drug) (KIF5B/Ret_V804M; Assay 1): 91 % Control; IC50 ([2]; read-out: EGFR Ba/F3 cells IC 50 Assay 1 Del/T/L718Q, Assay 1, Del/T/L718Q): > 1000 nM and 1000 nM; IC50 ([6]; read-out: EGFR Ba/F3 cells IC 50 (nM) Assay 1 T/L/L718Q; Assay 1; T/L/L718Q): 270 nM
8 | C=CC(=O)Nc1cc(Nc2nccc(N(C)C(=O)Oc3ccccc3)n2)c(OC)cc1N(C)CCN(C)C [Compound 80A] | 90 |  |  | 14 | 12 |  |  | 94 |  |  |  |  |  |  |  |  |  |  | 
9 | C=CC(=O)Nc1cccc(N(C(=O)Nc2ccccc2)c2cc(Nc3ccc(N4CCN(C)CC4)cc3OC)ncn2)c1 [Compound 1A, N-(3-(1-(6-((2-methoxy-4-(4-methylpiperazin-1-yl)phenyl)amino)pyrimidin-4-yl)-3-phenylureido)phenyl)acrylamide] |  | 2 | 5 |  |  | 4 | 0 |  | 3 | 1 | 63 | 83 | 1.56 | 6.33 | 3.1 | 14 | 19 |  | IC50 ([7]; Assay 1, read-out: EGFR Ba/F3 cells IC 50 (nM) Assay 1 L718Q/L858R): 49.8 nM; IC50 ([7]; Assay 2, read-out: EGFR Ba/F3 cells IC 50 (nM) Assay 2 L718Q/L858R): 149 nM; IC50 [3, 8]: 16.4 nM; EGFR activity (% Control, 1.0 μM drug) Assay 1 KIF5B/Ret_V804M (KIF5B/Ret_V804M): 65 % Control; EGFR Ba/F3 cells Assay 1 Del/T/L718Q % inhibition 1.0 uM ([2]; Assay 1, Del/T/L718Q, 1.0 uM): 47%; IC50 [6, 9]: 178 nM
